The values that follow come from PubChem BioAssay (NCI).

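Dose response: 5 concentrations. Exposure: 48 h. Format: 96-well plates. Endpoint: linear interpolation; highest concentration if not reached. GI50 marks 50% less growth. TGI denotes the concentration required for complete inhibition of growth.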

Common to all, as to assay: NCI anticancer screen, dose series, 48 h
The test system of test [1] is COLO 205 colon.
The subject of test [2] is RXF 393 renal.
Test [3] has as its system LOX IMVI melanoma.
Test [4] has as its system NCI/ADR-RES ovarian.
In test [5] the test system is HOP-92 NSCLC.
For test [6], the system named is MDA-MB-435.
Test [7] deals with EKVX NSCLC.
In test [8] the test system is SNB-75 CNS.
For test [9], the system named is NCI-H522 lung.
The subject of test [10] is SK-MEL-2 melanoma.

Take `Cn1c(C(=O)c2ccncc2)cc2ccccc21`: the GI50 is above 100 µM in [1]; 35.1 µM in [2]; above 100 µM in test [3]; 46.8 µM in test [4]; 40.2 µM in test [5]; above 100 µM in [6]. The GI50 is 78.1 µM in [7], 85.6 µM in [8], 78.5 µM in test [9] and above 100 µM in test [10]. In addition, the TGI in test [1], in test [2], in test [3], in test [4], in [5] and in test [6] was above 100 µM throughout. Also, the TGI in test [7], in [8], in test [9] and in [10] was above 100 µM in each case.

As for `Cc1[nH]nc(C(F)(F)F)c1N=NN(C)C`, the TGI in test [1] is 10.7 µM; in test [2] it was 26.5 µM; in [3], above 100 µM; in test [4] it was 23 µM; in [5] it was 23.5 µM; in test [6], 32.7 µM. Besides, the results for the TGI in test [7], in test [9] and in [10] were 11.5 µM, 2.98 µM and 35.5 µM, respectively.

On to `O=C1c2ccccc2-[n+]2ccc3c([nH]c4ccccc43)c21`, for which the TGI came to 0.498 µM in test [1]; 1.26 µM in test [2]; 0.81 µM in test [3]; 4.61 µM in test [4]; 0.329 µM in test [6]; 1.6 µM in [7]. Further, the TGI was determined as 1.93 µM in test [8], 1.3 µM in [9] and 0.427 µM in [10].

Turning to `O=S(=O)(NC1=NCCN1C(=S)SN1CCn2c1nsc2=S)c1cccc2ccccc12`, the GI50 in [1] was 26.8 µM; in [2], 10.5 µM; in test [3], 20.4 µM; in test [4] it was 45.5 µM; in [6], 17.4 µM; in [7], 25.8 µM. Moreover, the GI50 in test [8] is 24.3 µM; in [9], 12.2 µM; in [10], 17.5 µM. Besides, the TGI was above 100 µM in [1]; 67.2 µM in test [2]; 55 µM in test [3]; above 100 µM in test [4]; 39.9 µM in [6]; above 100 µM in test [7]. In addition, the TGI in test [8] was above 100 µM; in test [9], 36.1 µM; in test [10], 44.1 µM.

Take `Cc1nc(N)nc2c1CCC(O)S2` (stereo not given): the GI50 in [1] was 5.31 µM; in [2], 5.4 µM; in [3] it was 10.4 µM; in [4], above 100 µM; in test [5] it was 2.54 µM; in test [6], 4.51 µM. Moreover, the GI50 is 24.8 µM in test [7], 11.2 µM in [8] and 17 µM in test [9]. Also, the TGI in [1] is 16.7 µM; in [2], 27 µM; in test [3], 24.5 µM; in test [4], above 100 µM; in test [5], 12.3 µM; in [6], 18.7 µM. Besides, the TGI in [7] was 93.2 µM; in [8], 39.8 µM; in test [9] it was 34 µM.

With `CCOC(=O)c1cc2cc3c4c(c2oc1=O)CCCN4CCC3`, the TGI amounted to 57.1 µM in [1]; 39.4 µM in test [2]; 62.7 µM in test [3]; 72.9 µM in [4]; 58 µM in test [5]; 83.5 µM in test [6]. In addition, the TGI in [7] is 80 µM; in [9], 45.6 µM; in test [10], above 100 µM.

Consider `COc1ccc(-c2cs/c(=N\N=C\c3ccc(O)cc3O)n2/N=C/c2ccc(O)cc2O)cc1`, for which the GI50 was 2.09 µM in test [1]; 1.76 µM in test [3]; 2.02 µM in test [4]; 2.38 µM in test [5]; 1.69 µM in test [6]; 2.32 µM in test [7]. The values for the GI50 in [8], in test [9] and in test [10] were 1.58 µM, 1.88 µM and 2.14 µM, respectively. Further, the TGI in [1] was 4.19 µM; in test [3] it was 3.68 µM; in [4] it was 5.35 µM; in [5] it was 6.51 µM; in test [6], 3.48 µM; in test [7] it was 6.73 µM. The TGI is 3.08 µM in [8], 4.68 µM in test [9] and 4.87 µM in [10].

As to `S=c1snc2n1CCN2`, the GI50 was 25.2 µM in [1]; above 100 µM in test [2]; 81.7 µM in test [3]; above 100 µM in test [4]; above 100 µM in [5]; above 100 µM in test [6]. Besides, the GI50 in test [7] is above 100 µM; in test [8], above 100 µM; in [9] it was 40.9 µM. The TGI in [1], in test [2], in test [3], in test [4], in test [5] and in test [6] was above 100 µM each time. The TGI in test [7], in [8] and in test [9] was above 100 µM throughout.

In the case of `O=C(O)c1ccc(NCn2nc(-c3ccccc3O)oc2=S)cc1`, the GI50 in test [1] was 48.8 µM; in test [2] it was 67.9 µM; in [3], 19.9 µM; in test [4], 62.7 µM; in test [5], 33.8 µM; in [6], above 100 µM. Besides, the GI50 in test [7], in test [9] and in [10] was above 100 µM in each case. In addition, the TGI in test [1] is above 100 µM; in [2], above 100 µM; in [3], 38.3 µM; in test [4], above 100 µM; in [5], 82.6 µM; in [6] it was above 100 µM. Besides, the TGI in [7], in [9] and in [10] was above 100 µM throughout.

Turning to `CCOC(=O)Nc1nc2ccc(OC)cc2s1`, the GI50 is above 100 µM in test [1]; above 100 µM in test [2]; above 100 µM in test [3]; above 100 µM in test [4]; above 100 µM in test [5]; 4.18 µM in test [6]. In addition, the GI50 in [8], in [9] and in test [10] was above 100 µM each time. For the same compound, the TGI in test [1], in [2], in [3], in [4], in [5] and in [6] was above 100 µM in each case. The TGI in [8], in [9] and in [10] was above 100 µM in each case.
